Laboratory results from patent publication US20240415819A1, “MACROCYCLIC COMPOUNDS AS PROTEASOME SUBUNIT BETA TYPE-5 INHIBITORS” (Lead Discovery Center GmbH, priority 2021, published 2024).
Read-outs that look alike come from different tables or passages of the source.

How the values were obtained:
hPMBC = assay: Chymotrypsin-like ProteasomeGlo assay in hPBMC; format: cell-based; details: Homo sapiens; read-out: Pglo hPBMC
Text: Chymotrypsin-like ProteasomeGlo assay in the B-cells isolated from PBMC's following compound addition (IC50). • 1. PBMC's will be isolated from human blood followed by B-cell isolation from the PBMC's using the Miltenyi Isolation Kit. • 2. This experiment will use the Chymotrypsin-like ProteasomeGlo read-out to generate IC50's following compound treatment. • 3. Dilute all compounds 1:100 for the assay. • 4. […] Repeat the DMSO transfer with lane 12. • 5. Lane 12 should not be seeded with any cells. Only medium! • 6. For all steps, make sure the samples and reagents remain cool! • 7. While dealing with the buffy coats, be careful to not let any exposed skin to be in direct contact with the blood.
For the initial steps and to make processing the buffy coats easier, separately process the buffy coats. • a. Cut the tube attached to the buffy coats carefully using a clean, sterile and fresh scalpel. • b. Transfer the blood into 2 individual 50 ml falcons. • c. Add an equal volume of DPBS to the blood in the falcons. • d. Add ˜20 ml of lymphocyte separating medium to two 50 ml falcons. • e. Carefully pour 15-20 ml of the blood+DPBS mix from step c. onto the lymphocyte separating medium from step d. • f. Centrifuge the falcons with the lymphocyte separating medium+blood mix at 800×g for 15 minutes using a swing-out rotor. • g. Following centrifugation, carefully remove the falcons from the centrifuge. • h. The following layers will be observed: • i. Aspirate the plasma layer off carefully without disturbing the different layers. • j. Remove the cell pellet using a pipette into two fresh 50 ml falcons. • k. Fill the falcons with the cells up to 50 ml with DPBS. • l. Centrifuge the falcons at 250×g for 10 minutes using a swing-out rotor (Brake-off). • m. Aspirate the complete DPBS off the cells without disturbing the cell pellet at the bottom of the falcon. • n. Re-suspend the cell pellet in 10 ml of 1×RBC lysis buffer. • o. Incubate the falcons at room temperature in the dark for 10 minutes. • p. After RBC lysis, centrifuge the tubes at 250×g for 10 minutes using a swing-out rotor (brake-off). • (*Note: If the cell pellet is still red or light red, repeat steps n. to p.!) • q. Re-suspend the cell pellet in DPBS up to 50 ml in the falcon. • r. Centrifuge the falcons at 250×g for 10 minutes using a swing-out rotor (Brake-off). • s. Aspirate the DPBS off the cells without disturbing the cell pellet at the bottom of the falcon. • t. Repeat the wash step as described in steps q. to s. 2× times more (total number of washes is 3×). • u. Aspirate the DPBS completely off the cell pellet after the last wash without disturbing the cell pellet. • v. Re-suspend the cell pellet in 20 ml of PBMC cell medium. • w.
• a. Remove the plates with cells from the incubator. • b. Take all the plates including the compound plate, intermediate plate and Staurosporine plate to the ECHO. • c. Click on “Open” in the ECHO software and select the protocol “QLI5_25ul_30 uM-Grenier”. • d. Follow the on-screen prompts and instructions once you click “Start” to insert the compound plate, intermediate plate and destination plates. • e. Change the final number of destination plates on the program. • f. Follow the on-screen prompts and instructions once you click “Start” to load the Staurosporine and destination plates. • g. Once all the compounds, DMSO and Staurosporine have been transferred, place the destination plates in a wet tissue box. • h. Place the destination plates back into the incubator and incubate at 37° C., 5% CO2 for 105 minutes. • i. Re-seal all the compound+Stauro diamond and intermediate plates and store in the dark. Chymotrypsin like ProteasomeGlo Assay • 1. Thaw the components of the ProteasomeGlo assay at room temperature including the ProteasomeGlo Buffer, the lyophilized Luciferin Detection Reagent and the Suc-LLVY-Glo Substrate. • 2. […]

[1] = molecular target: T1, β5 subunit of the human constitutive proteasome (CPS) (Homo sapiens, UniProt P28074); assay: β5 inhibition assay, human constitutive proteasome (Suc-LLVY-AMC); format: biochemical; details: IC50 class, Suc-LLVY-AMC substrate
T1 construct: purchased Boston Biochem E-360
Protocol: The enzymatic activity of the β5 subunit of the human constitutive proteasome (CPS) is analyzed. In another assay, which differs from the assay of the human constitutive proteasome only in using the human immunoproteasome (IPS) the enzymatic activity of the β5 subunit of the human immunoproteasome (IPS) is analyzed. […] Inhibition is indicated as IC50 [nM] (“-”=not measured).

HT-29 cells = assay: CellTiter-Glo luminescent cell viability assay with HT-29 cells (72h incubation); format: cell-based, human; details: read-out: CTG HT29
Method in brief: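 Viability read as CellTiter-Glo luminescence after 72 h compound exposure, with 10 μM staurosporine and DMSO as control wells. Seeding 400 cells per well, compound added 24 h post-plating; IC50 from curve fitting.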

[2] = Homo sapiens, HT-29, HT29 cells

IC50 (hPMBC) | IC50 [1] | IC50 (HT-29 cells; [2]) | IC50 (HT-29 cells; HT29 cells) | Structure (SMILES)
< 100 nM | < 100 nM | – | – | Cc1ccc2cc1CNC(=O)[C@H](CCc1ccccc1)NC(=O)[C@@H](NC(=O)Cc1ccccc1C)CC(=O)N1CCCC(CCO2)C1 (stereo partly drawn) [Compound 373, N-((9S,12S)-5^4-methyl-8,11,14-trioxo-9-phenethyl-4-oxa-7,10-diaza-1(3,1)-piperidina-5(1,3)-benzenacyclotetradecaphane-12-yl)-2-(o-tolyl)acetamide]
< 100 nM | < 100 nM | < 100 nM | – | CCOC(=O)N[C@H]1CC(=O)N2CCCC(CCOc3ccc(C)c(c3)CNC(=O)C(c3cnn(C)c3)NC1=O)C2 (stereo partly drawn) [Compound 363, Ethyl ((12S)-5^4-methyl-9-(1-methyl-1H-pyrazol-4-yl)-8,11,14-trioxo-4-oxa-7,10-diaza-1(3,1)-piperidina-5(1,3)-benzenacyclotetradecaphane-12-yl)carbamate]
< 100 nM | < 100 nM | < 100 nM | – | Cc1ccc2cc1CNC(=O)C(CCc1ccc(C3(C)COC3)cc1)NC(=O)[C@@H](NC(=O)OCc1ccccc1)CC(=O)N1CCCC(CCO2)C1 (stereo partly drawn) [Compound 510, benzyl ((12S)-5^4-methyl-9-(4-(3-methyloxetan-3-yl)phenethyl)-8,11,14-trioxo-4-oxa-7,10-diaza-1(3,1)-piperidina-5(1,3)-benzenacyclotetradecaphane-12-yl)carbamate]
< 100 nM | < 100 nM | 100 to 500 nM | – | CC(=O)N[C@H]1CC(=O)N2CCCC(CCOc3ccc(C)c(c3)CNC(=O)C(c3cn[nH]c3)NC1=O)C2 (stereo partly drawn) [Compound 562, N-((12S)-5^4-methyl-8,11,14-trioxo-9-(1H-pyrazol-4-yl)-4-oxa-7,10-diaza-1(3,1)-piperidina-5(1,3)-benzenacyclotetradecaphane-12-yl)acetamide]
– | < 100 nM | – | < 100 nM | Cc1ccc2cc1CNC(=O)C(CCc1ccccc1)NC(=O)C(NC(=O)CCc1ccccc1)CC(=O)N1CCCC(CCO2)C1 [Compound 30, N-((9S,12S)-5^4-methyl-8,11,14-trioxo-9-phenethyl-4-oxa-7,10-diaza-1(3,1)-piperidina-5(1,3)-benzenacyclotetradecaphane-12-yl)-3-phenylpropanamide]
< 100 nM | < 100 nM | < 100 nM | – | CC(=O)N[C@H]1CC(=O)N2CCCC(CCOc3ccc(C)c(c3)CNC(=O)C(c3cc(C)n(C)n3)NC1=O)C2 (stereo partly drawn) [Compound 561, N-((12S)-9-(1,5-dimethyl-1H-pyrazol-3-yl)-5^4-methyl-8,11,14-trioxo-4-oxa-7,10-diaza-1(3,1)-piperidina-5(1,3)-benzenacyclotetradecaphane-12-yl)acetamide]
< 100 nM | < 100 nM | < 100 nM | – | CC(=O)N[C@H]1CC(=O)N2CCCC(CCOc3ccc(C)c(c3)CNC(=O)C(c3cc(C)sn3)NC1=O)C2 (stereo partly drawn) [Compound 556, N-((12S)-5^4-methyl-9-(5-methylisothiazol-3-yl)-8,11,14-trioxo-4-oxa-7,10-diaza-1(3,1)-piperidina-5(1,3)-benzenacyclotetradecaphane-12-yl)acetamide]
– | < 100 nM | < 100 nM | – | Cc1ccc2cc1CNC(=O)[C@H](CCc1ccccc1)NC(=O)[C@@H](NC(=O)Cc1ccccc1)CC(=O)N1CCCC(CCO2)C1 (stereo partly drawn) [Compound 29, N-((9S,12S)-5^4-methyl-8,11,14-trioxo-9-phenethyl-4-oxa-7,10-diaza-1(3,1)-piperidina-5(1,3)-benzenacyclotetradecaphane-12-yl)-2-phenylacetamide]
100 to 500 nM | < 100 nM | 100 to 500 nM | – | Cc1ccc2cc1CNC(=O)C(CCc1ccc(S(=O)(=O)O)cc1)NC(=O)[C@@H](NC(=O)OCc1ccccc1)CC(=O)N1CCCC(CCO2)C1 (stereo partly drawn) [Compound 509, 4-(2-((12S)-12-(((benzyloxy)carbonyl)amino)-5^4-methyl-8,11,14-trioxo-4-oxa-7,10-diaza-1(3,1)-piperidina-5(1,3)-benzenacyclotetradecaphane-9-yl)ethyl)benzenesulfonic acid]
< 100 nM | < 100 nM | < 100 nM | – | Cc1ccc2cc1CNC(=O)C(CCc1ccncc1)NC(=O)[C@@H](NC(=O)C1(c3ccc(N)cc3)CC1)CC(=O)N1CCCC(CCO2)C1 (stereo partly drawn) [Compound 343, 1-(4-aminophenyl)-N-((12S)-5^4-methyl-8,11,14-trioxo-9-(2-(pyridin-4-yl)ethyl)-4-oxa-7,10-diaza-1(3,1)-piperidina-5(1,3)-benzenacyclotetradecaphane-12-yl)cyclopropane-1-carboxamide]
– | < 100 nM | < 100 nM | – | Cc1ccc2cc1CNC(=O)[C@H](CCc1ccccc1)NC(=O)[C@@H](NC(=O)c1nc3ccccc3[nH]1)CC(=O)N1CCCC(CCO2)C1 (stereo partly drawn) [Compound 31, N-((9S,12S)-5^4-methyl-8,11,14-trioxo-9-phenethyl-4-oxa-7,10-diaza-1(3,1)-piperidina-5(1,3)-benzenacyclotetradecaphane-12-yl)-1H-benzo[d] imidazole-2-carboxamide]
– | < 100 nM | < 100 nM | – | CC(=O)N[C@H]1CC(=O)N2CCCC(CCOc3ccc(C)c(c3)CNC(=O)[C@H](CCc3ccccc3)NC1=O)C2 (stereo partly drawn) [Compound 33, N-((9S,12S)-5^4-methyl-8,11,14-trioxo-9-phenethyl-4-oxa-7,10-diaza-1(3,1)-piperidina-5(1,3)-benzenacyclotetradecaphane-12-yl)acetamide]
– | < 100 nM | < 100 nM | – | Cc1ccc2cc1CNC(=O)[C@H](CCc1ccccc1)NC(=O)[C@@H](NC(=O)C(C)(C)C)CC(=O)N1CCCC(CCO2)C1 (stereo partly drawn) [Compound 27, N-((9S,12S)-5^4-methyl-8,11,14-trioxo-9-phenethyl-4-oxa-7,10-diaza-1(3,1)-piperidina-5(1,3)-benzenacyclotetradecaphane-12-yl)pivalamide]
– | < 100 nM | 100 to 500 nM | – | Cc1ccc2cc1CNC(=O)[C@H](CCc1ccccc1)NC(=O)[C@@H](NC1COC1)CC(=O)N1CCCC(CCO2)C1 (stereo partly drawn) [Compound 35, (9S,12S)-5^4-methyl-12-(oxetan-3-ylamino)-9-phenethyl-4-oxa-7,10-diaza-1(3,1)-piperidina-5(1,3)-benzenacyclotetradecaphane-8,11,14-trione]
– | < 100 nM | < 100 nM | – | Cc1ccc2cc1CNC(=O)[C@H](CCc1ccccc1)NC(=O)[C@@H](NC(=O)c1ncccn1)CC(=O)N1CCCC(CCO2)C1 (stereo partly drawn) [Compound 32, N-((9S,12S)-5^4-methyl-8,11,14-trioxo-9-phenethyl-4-oxa-7,10-diaza-1(3,1)-piperidina-5(1,3)-benzenacyclotetradecaphane-12-yl)pyrimidine-2-carboxamide]

Structure (SMILES) | IC50 (hPMBC) | IC50 [1] | IC50 (HT-29 cells; [2]) | IC50 (HT-29 cells; HT29 cells)
Cc1ccc2cc1CNC(=O)[C@H](CCc1ccccc1)NC(=O)[C@@H](Nc1ncccn1)CC(=O)N1CCCC(CCO2)C1 (stereo partly drawn) [Compound 34, (9S,12S)-5^4-methyl-9-phenethyl-12-(pyrimidin-2-ylamino)-4-oxa-7,10-diaza-1(3,1)] | – | < 100 nM | < 100 nM | –
